Source: publication PMC7150766 (Viruses, 2020)

Assays:
[1] = tested on: LNCs and splenocytes from immunized mice; experiment: Proliferative response, whole cells from VP1 peptide-immunized mice; type: cell-based, A/J mice
[2] = tested on: splenocytes from CVB4-infected A/J mice; experiment: Proliferative response of splenocytes from CVB4-infected mice; type: cell-based; settings: peptide 2 days, then 3[H] thymidine 16 h, p ≤ 0.01 for VP1 721–740, Figure 6a

VNTFVHESLADVQA [RNase 43–56, bovine ribonuclease (RNase) 43–56, irrelevant control peptide]
Proliferative response (in words) [1]: the cells did not react to control | Proliferative response (in words) [2]: the cells did not respond to control
